Laboratory results from patent US20250340538A1, “IMIDAZOLONE DERIVATIVES AS INHIBITORS OF PROTEIN KINASES IN PARTICULAR DYRK1A, CLK1 AND/OR CLK4” (PERHA PHARMACEUTICALS, priority 2021, published 2025).
Where two headings read alike, the source gives them in different places.

Key:
Type in all cases: biochemical
[1] = target: T1, DYRK4 (Homo sapiens, UniProt Q9NR20); assay: Radiometric protein kinase assay (33PanQinase Activity Assay), DYRK4; conditions: read-out: IC50 on DYRK4 (most potent DYRK4 inhibitors)
T1 construct: GST-fusion or His-tag (not specified per kinase); purchased ProQinase GmbH; host or cells: Sf9 insect cells or E. coli (not specified per kinase)
T1 sequence (Q9NR20 1-520): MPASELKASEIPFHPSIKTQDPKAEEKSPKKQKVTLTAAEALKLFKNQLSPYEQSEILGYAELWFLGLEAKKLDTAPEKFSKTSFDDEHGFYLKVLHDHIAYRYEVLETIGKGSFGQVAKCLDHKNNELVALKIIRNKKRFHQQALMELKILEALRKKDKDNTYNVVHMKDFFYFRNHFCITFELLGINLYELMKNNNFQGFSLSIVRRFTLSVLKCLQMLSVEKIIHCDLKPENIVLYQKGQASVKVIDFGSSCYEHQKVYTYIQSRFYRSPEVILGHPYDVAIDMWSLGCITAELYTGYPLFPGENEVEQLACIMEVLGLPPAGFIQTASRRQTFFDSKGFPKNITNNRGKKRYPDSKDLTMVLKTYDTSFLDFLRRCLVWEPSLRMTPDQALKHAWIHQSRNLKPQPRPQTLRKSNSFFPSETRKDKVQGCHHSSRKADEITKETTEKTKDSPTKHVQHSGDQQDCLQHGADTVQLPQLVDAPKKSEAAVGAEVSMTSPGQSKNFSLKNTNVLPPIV
Description: (§1) Assays were performed by ProQinase GmbH (Engesserstr. 4, D-79108 Freiburg, Germany. www.proqinase.com). The IC50 profile of all compounds was determined using 12 protein kinases (CDK2/cyclin E, CK1ε, CLK1, 2, 3, 4, DYRK1A, 1B, 2, 3, 4, GSK3β).
(§2) The compounds were provided as […] in 100% DMSO. Prior to testing, the 1 μM stock solutions were subjected to a serial, semi-logarithmic dilution using 100% DMSO as a solvent. […] In the process, 90 μl H2O were added to each well of each compound dilution plate. To minimize potential precipitation, the H2O was added to each plate only a few minutes before the transfer of the compound solutions into the assay plates. The plate was shaken thoroughly, resulting in a compound dilution plate/10% DMSO.
For the assays (see below), 5 μL solution from each well of the compound dilution plates/10% DMSO were transferred into the assay plates. The final volume of the assay was 50 μL. All compounds were tested at 10 final assay concentrations in the range from 10 μM to 30 nM. The final DMSO concentration in the reaction cocktails was 1% in all cases. […]
The reaction cocktails were incubated at 30° C. for 60 minutes. […] Incorporation of ^33Pi was determined with a microplate scintillation counter (Microbeta, Wallac). The IC50 values for all compounds were calculated from the dose response curves […]

[2] = target: T2, CLK1 (Homo sapiens, UniProt P49759); assay: Radiometric protein kinase assay (33PanQinase Activity Assay), CLK1
T2 construct: GST-fusion or His-tag (not specified per kinase); purchased ProQinase GmbH; host or cells: Sf9 insect cells or E. coli (not specified per kinase)
T2 sequence (P49759 whole entry, the tested form may be a part): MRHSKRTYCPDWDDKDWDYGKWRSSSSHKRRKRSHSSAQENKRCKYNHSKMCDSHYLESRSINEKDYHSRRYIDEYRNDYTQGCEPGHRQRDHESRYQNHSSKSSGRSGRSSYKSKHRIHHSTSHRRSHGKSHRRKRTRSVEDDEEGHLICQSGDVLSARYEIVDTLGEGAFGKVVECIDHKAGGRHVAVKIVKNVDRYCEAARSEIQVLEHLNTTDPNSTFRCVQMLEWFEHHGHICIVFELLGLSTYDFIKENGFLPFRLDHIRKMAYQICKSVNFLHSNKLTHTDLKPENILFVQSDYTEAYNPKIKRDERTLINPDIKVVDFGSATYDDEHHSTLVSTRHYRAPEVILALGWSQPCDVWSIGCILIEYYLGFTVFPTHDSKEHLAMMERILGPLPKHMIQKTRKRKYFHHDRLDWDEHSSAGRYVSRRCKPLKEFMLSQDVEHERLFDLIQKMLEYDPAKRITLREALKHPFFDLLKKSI
Outline: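 Kinase activity is measured radiometrically as 33P transfer from [γ-33P]-ATP to substrate by recombinant human enzyme over 60 min at 30 °C. Test compounds span 10 μM to 30 nM (10 points, 1% DMSO), and IC50 values come from the resulting dose-response curves.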

[3] = target: T3, DYRK1A (Homo sapiens, UniProt Q13627); assay: Radiometric protein kinase assay (33PanQinase Activity Assay), DYRK1A; conditions: for Selectivity Class DYRK1A vs. CLK1: ratio of IC50 on CLK1 over IC50 on DYRK1A; for Selectivity Class DYRK1A vs. DYRK1B: ratio of IC50 on DYRK1B over IC50 on DYRK1A
T3 construct: GST-fusion or His-tag (not specified per kinase); purchased ProQinase GmbH; host or cells: Sf9 insect cells or E. coli (not specified per kinase)
Outline: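 Recombinant human kinase, expressed in Sf9 or E. coli, in a radiometric [γ-33P]-ATP assay at 30 °C for 60 min. Compounds tested at 10 concentrations from 10 μM to 30 nM, 1% DMSO final. 33Pi incorporation measured by scintillation counting; IC50 from dose-response curves.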

[4] = target: T4, DYRK2 (Homo sapiens, UniProt Q92630); assay: Radiometric protein kinase assay (33PanQinase Activity Assay), DYRK2; conditions: read-out: IC50 on DYRK2 (most potent DYRK2 inhibitors)
T4 construct: GST-fusion or His-tag (not specified per kinase); purchased ProQinase GmbH; host or cells: Sf9 insect cells or E. coli (not specified per kinase)
T4 sequence (Q92630 1-601): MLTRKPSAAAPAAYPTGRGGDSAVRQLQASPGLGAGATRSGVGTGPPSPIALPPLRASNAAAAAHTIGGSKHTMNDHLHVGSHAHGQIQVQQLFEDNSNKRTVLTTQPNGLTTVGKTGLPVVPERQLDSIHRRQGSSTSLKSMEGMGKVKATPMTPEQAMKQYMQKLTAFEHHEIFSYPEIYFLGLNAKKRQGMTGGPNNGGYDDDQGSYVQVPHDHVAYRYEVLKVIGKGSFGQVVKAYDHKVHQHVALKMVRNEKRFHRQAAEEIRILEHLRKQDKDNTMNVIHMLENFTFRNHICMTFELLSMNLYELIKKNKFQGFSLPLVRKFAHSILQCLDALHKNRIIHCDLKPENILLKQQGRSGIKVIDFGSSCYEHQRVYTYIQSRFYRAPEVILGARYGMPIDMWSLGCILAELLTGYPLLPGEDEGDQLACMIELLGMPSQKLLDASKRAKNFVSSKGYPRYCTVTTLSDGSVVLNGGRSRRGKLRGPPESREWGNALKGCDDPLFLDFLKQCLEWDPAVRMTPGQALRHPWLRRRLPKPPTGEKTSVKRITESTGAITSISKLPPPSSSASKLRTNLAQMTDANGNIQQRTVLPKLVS
Description: as §1, §2
(§3) For the assays (see below), 5 μL solution from each well of the compound dilution plates/10% DMSO were transferred into the assay plates. The final volume of the assay was 50 μL. All compounds were tested at 10 final assay concentrations in the range from 10 μM to 30 nM. The final DMSO concentration in the reaction cocktails was 1% in all cases.
(§4) All protein kinases provided by ProQinase were expressed in Sf9 insect cells or in E. coli as recombinant GST-fusion proteins or His-tagged proteins, either as full-length or enzymatically active fragments. All kinases were produced from human cDNAs and purified by either GSH-affinity chromatography or immobilized metal. Affinity tags were removed from a number of kinases during purification. The purity of the protein kinases was examined by SDS-PAGE/Coomassie staining, the identity was checked by mass spectroscopy.
(§5) A radiometric protein kinase assay (33PanQinase® Activity Assay) was used for measuring the kinase activity of the 12 protein kinases. All kinase assays were performed in 96-well FlashPlates™ from PerkinElmer (Boston, MA, USA) in a 50 μL reaction volume. The reaction cocktail was pipetted in four steps in the following order: • 25 μL of assay buffer (standard buffer/[γ-^33P]-ATP), • 10 μL of ATP solution (in H2O), • 5 μL of test compound (in 10% DMSO), • 10 μL of enzyme/substrate mixture.
(§6) The reaction cocktails were incubated at 30° C. for 60 minutes. The reaction was stopped with 50 μL of 2% (v/v) H3PO4, plates were aspirated and washed two times with 200 μL 0.9% (w/v) NaCl. Incorporation of ^33Pi was determined with a microplate scintillation counter (Microbeta, Wallac). The IC50 values for all compounds were calculated from the dose response curves
(§7) As a parameter for assay quality, the Z′-factor (Zhang et al., J. Biomol. Screen. 2: 67-73, 1999) for the low and high controls of each assay plate (n=8) was used. ProQinase's criterion for repetition of an assay plate is a Z′-factor below 0.4 (Iversen et al., J. Biomol. Screen. 3: 247-252, 2006).

[5] = target: T5, CLK4 (Homo sapiens, UniProt Q9HAZ1); assay: Radiometric protein kinase assay (33PanQinase Activity Assay), CLK4; conditions: read-out: IC50 on CLK4 (most potent CLK4 inhibitors)
T5 construct: GST-fusion or His-tag (not specified per kinase); purchased ProQinase GmbH; host or cells: Sf9 insect cells or E. coli (not specified per kinase)
T5 sequence (Q9HAZ1 whole entry, the tested form may be a part): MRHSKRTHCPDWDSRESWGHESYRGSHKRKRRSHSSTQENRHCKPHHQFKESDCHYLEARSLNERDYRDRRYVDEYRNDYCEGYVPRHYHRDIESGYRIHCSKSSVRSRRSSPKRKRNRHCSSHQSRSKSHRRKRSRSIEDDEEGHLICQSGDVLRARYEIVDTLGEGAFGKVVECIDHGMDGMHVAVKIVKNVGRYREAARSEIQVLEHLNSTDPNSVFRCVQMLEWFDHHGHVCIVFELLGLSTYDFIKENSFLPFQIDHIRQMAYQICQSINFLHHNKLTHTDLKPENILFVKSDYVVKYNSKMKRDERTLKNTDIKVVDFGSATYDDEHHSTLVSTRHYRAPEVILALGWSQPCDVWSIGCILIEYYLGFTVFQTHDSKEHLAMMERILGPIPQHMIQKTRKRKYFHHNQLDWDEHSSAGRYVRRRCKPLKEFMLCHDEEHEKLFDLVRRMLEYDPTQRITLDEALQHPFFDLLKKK
Description: as §1, §2, §3, §4, §5, §6, §7

[6] = target: T6, DYRK3 (Homo sapiens, UniProt O43781); assay: Radiometric protein kinase assay (33PanQinase Activity Assay), DYRK3; conditions: read-out: IC50 on DYRK3 (most potent DYRK3 inhibitors)
T6 construct: GST-fusion or His-tag (not specified per kinase); purchased ProQinase GmbH; host or cells: Sf9 insect cells or E. coli (not specified per kinase)
T6 sequence (O43781 1-588): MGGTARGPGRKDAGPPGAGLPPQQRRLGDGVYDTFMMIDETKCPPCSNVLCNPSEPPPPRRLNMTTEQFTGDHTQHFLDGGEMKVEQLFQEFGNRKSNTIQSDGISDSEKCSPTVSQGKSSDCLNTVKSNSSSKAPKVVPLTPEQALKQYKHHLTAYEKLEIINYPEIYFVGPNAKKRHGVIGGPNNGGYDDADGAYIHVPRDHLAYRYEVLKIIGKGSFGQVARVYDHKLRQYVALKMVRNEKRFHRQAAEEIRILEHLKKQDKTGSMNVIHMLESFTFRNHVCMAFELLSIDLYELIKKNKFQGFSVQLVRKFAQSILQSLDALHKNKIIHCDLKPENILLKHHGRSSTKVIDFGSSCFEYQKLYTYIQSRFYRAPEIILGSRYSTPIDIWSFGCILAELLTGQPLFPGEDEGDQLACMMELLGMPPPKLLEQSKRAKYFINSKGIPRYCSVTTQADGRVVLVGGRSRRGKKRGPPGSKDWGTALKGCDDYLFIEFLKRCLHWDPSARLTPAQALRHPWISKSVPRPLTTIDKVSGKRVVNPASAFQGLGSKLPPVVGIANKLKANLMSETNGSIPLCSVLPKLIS
Description: as §1, §2, §3, §4, §5, §6, §7

[7] = target: T7, DYRK1B (Homo sapiens, UniProt Q9Y463); assay: Radiometric protein kinase assay (33PanQinase Activity Assay), DYRK1B; conditions: read-out: IC50 on DYRK1B (most potent DYRK1B inhibitors)
T7 construct: GST-fusion or His-tag (not specified per kinase); purchased ProQinase GmbH; host or cells: Sf9 insect cells or E. coli (not specified per kinase)
T7 sequence (Q9Y463 whole entry, the tested form may be a part): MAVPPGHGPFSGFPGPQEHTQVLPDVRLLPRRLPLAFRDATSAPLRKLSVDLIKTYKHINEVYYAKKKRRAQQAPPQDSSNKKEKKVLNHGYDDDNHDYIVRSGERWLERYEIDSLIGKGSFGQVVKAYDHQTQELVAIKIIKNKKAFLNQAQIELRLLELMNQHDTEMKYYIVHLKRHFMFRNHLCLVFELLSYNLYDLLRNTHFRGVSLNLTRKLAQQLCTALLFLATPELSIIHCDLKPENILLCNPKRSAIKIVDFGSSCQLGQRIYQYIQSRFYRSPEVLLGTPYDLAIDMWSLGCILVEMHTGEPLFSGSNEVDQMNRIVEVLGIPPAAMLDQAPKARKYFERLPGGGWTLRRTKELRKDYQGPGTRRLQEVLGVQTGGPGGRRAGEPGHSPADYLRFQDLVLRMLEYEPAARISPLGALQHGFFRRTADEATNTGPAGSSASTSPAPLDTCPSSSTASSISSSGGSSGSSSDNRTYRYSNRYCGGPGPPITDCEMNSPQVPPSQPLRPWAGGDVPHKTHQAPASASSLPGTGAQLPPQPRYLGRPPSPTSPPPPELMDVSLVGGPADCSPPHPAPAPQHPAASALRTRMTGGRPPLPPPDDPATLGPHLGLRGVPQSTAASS
Description: as §1, §2, §3, §4, §5, §6, §7

[8] = target: T8, CLK2 (Homo sapiens, UniProt P49760); assay: Radiometric protein kinase assay (33PanQinase Activity Assay), CLK2; conditions: read-out: IC50 on CLK2 (most potent CLK2 inhibitors)
T8 construct: GST-fusion or His-tag (not specified per kinase); purchased ProQinase GmbH; host or cells: Sf9 insect cells or E. coli (not specified per kinase)
T8 sequence (P49760 whole entry, the tested form may be a part): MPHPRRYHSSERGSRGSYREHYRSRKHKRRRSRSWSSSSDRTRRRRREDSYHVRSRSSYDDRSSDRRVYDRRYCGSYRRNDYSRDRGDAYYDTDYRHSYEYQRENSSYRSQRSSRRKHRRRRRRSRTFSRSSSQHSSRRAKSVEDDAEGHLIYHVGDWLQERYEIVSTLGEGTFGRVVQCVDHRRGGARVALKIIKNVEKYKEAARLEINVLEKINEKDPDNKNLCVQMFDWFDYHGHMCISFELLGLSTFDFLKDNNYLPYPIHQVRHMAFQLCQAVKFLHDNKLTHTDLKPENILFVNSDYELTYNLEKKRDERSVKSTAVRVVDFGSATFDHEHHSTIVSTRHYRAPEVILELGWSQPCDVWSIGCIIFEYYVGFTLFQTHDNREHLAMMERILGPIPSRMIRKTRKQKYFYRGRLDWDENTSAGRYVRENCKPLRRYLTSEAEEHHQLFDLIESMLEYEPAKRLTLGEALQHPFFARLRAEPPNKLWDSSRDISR
Description: as §1, §2, §3, §4, §5, §6, §7

[9] = target: T9, CLK3 (Homo sapiens, UniProt P49761); assay: Radiometric protein kinase assay (33PanQinase Activity Assay), CLK3; conditions: read-out: IC50 on CLK3 (most potent CLK3 inhibitors)
T9 construct: GST-fusion or His-tag (not specified per kinase); purchased ProQinase GmbH; host or cells: Sf9 insect cells or E. coli (not specified per kinase)
T9 sequence (P49761 whole entry, the tested form may be a part): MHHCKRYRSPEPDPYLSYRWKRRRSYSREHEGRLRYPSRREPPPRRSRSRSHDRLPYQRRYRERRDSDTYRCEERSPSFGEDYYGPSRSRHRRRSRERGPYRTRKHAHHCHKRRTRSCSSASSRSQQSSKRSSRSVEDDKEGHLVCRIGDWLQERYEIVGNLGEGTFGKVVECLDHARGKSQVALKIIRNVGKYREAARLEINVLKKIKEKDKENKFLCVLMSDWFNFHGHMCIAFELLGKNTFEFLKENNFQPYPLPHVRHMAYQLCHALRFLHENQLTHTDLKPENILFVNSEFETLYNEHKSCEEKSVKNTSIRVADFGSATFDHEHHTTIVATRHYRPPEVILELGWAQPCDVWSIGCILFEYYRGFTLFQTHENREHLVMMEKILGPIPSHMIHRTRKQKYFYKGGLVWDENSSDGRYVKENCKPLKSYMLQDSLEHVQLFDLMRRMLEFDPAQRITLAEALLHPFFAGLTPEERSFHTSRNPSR
Description: as §1, §2, §3, §4, §5, §6, §7

[10] = IC50 class A to E, read-out: Potency Class CLK1
[11] = class by IC50 on CLK1, from dose-response curves, read-out: Potency Class CLK1
[12] = IC50 class A to E, read-out: Potency Class DYRK1A
[13] = class by IC50 on DYRK1A, from dose-response curves, read-out: Potency Class DYRK1A
[14] = read-out: IC50 on DYRK1A (most potent DYRK1A inhibitors)

Row | SMILES | IC50 [1] | IC50 [2, 10] | IC50 [2, 11] | IC50 [3, 12] | IC50 [3, 13] | Selectivity Class DYRK1A vs. CLK1 [3] | Selectivity Class DYRK1A vs. DYRK1B [3] | IC50 [3, 14] | IC50 [4] | IC50 [5] | IC50 [6] | IC50 ([2]; read-out: IC50 on CLK1 (most potent CLK1 inhibitors)) | IC50 [7] | IC50 [8] | IC50 [9]
1 | O=C1NC(NC23CC4CC(CC2C4)C3)=N/C1=C\c1ccc2nccnc2c1 [Compound 16, (4Z)-2-(3-noradamantylamino)-4-(quinoxalin-6-ylmethylene)-1H-imidazol-5-one] | ≤ 300 nM | > 50 nM | > 50 nM | 5 to 10 nM | 5 to 10 nM | I (ratio of IC50 on CLK1 or DYRK1B over IC50 on DYRK1A ≥10 fold (most DYRK1A-selective compounds)) | II (ratio between 2 and 10 fold) | ≤ 10 nM | ≤ 250 nM | ≤ 10 nM | – | – | – | – | –
2 | O=C1NC(NC23CC4CC(CC(C4)C2)C3)=N/C1=C\c1ccc2ncccc2n1 [Compound 70, (4Z)-2-(1-adamantylamino)-4-(1,5-naphthyridin-2-ylmethylene)-1H-imidazol-5-one] | – | 5 to 10 nM | 5 to 10 nM | ≤ 5 nM | < 5 nM | II (ratio between 2 and 10 fold) | II (ratio between 2 and 10 fold) | ≤ 10 nM | – | ≤ 10 nM | ≤ 250 nM | ≤ 10 nM | ≤ 10 nM | ≤ 100 nM | ≤ 500 nM
3 | O=C1NC(NC2CCCCC2)=N/C1=C\c1ccc2ncccc2n1 [Compound 79, (4Z)-2-(cyclohexylamino)-4-(1,5-naphthyridin-2-ylmethylene)-1H-imidazol-5-one] | – | – | 25 to 50 nM | – | 25 to 50 nM | III (ratio between 0.5 and 2 fold) | III (ratio between 0.5 and 2 fold) | – | – | ≤ 10 nM | ≤ 250 nM | – | – | – | ≤ 500 nM
